In patent US8012492B2, “In vitro model of latent mycobacterial infection” (University of Central Florida Research Foundation, Inc., priority 2007, dated 2011):

Columns and labels:
[1] = tested on: Mtb within TDM; type: cell-based, Mycobacterium tuberculosis
[2] = tested on: WT-H37Rv; type: cell-based, Mycobacterium tuberculosis

Compound | Resistance of Mtb recovered from TDM to antibiotics [1] | Development of Rif resistance, share of the Mtb population [1] | Rif resistant cells [2] | Rif-resistance [2] | Rif-resistant cells [2]
NNC(=O)c1ccncc1 [INH] | showed resistance to both antibiotics |  |  |  | 
CO[C@H]1/C=C/O[C@@]2(C)Oc3c(C)c(O)c4c(O)c(c(/C=N/N5CCN(C)CC5)c(O)c4c3C2=O)NC(=O)/C(C)=C\C=C\[C@H](C)[C@H](O)[C@@H](C)[C@@H](O)[C@@H](C)[C@H](OC(C)=O)[C@@H]1C [Rif, Rifampicin] |  | about 25% | about 10% | up to 25% | about 0.03%
